Results as given in paper PMC6412891, “Synthesis and Biological Evaluation of Novel Thiazolyl-Coumarin Derivatives as Potent Histone Deacetylase Inhibitors with Antifibrotic Activity” (Molecules, 2019).

Legend:
HDAC1 human recombinant = target: T1, HDAC1 human recombinant (Homo sapiens, UniProt Q13547); assay: HDAC1 inhibitory activity, fluorometric kit; format: biochemical; conditions: Class I
T1 construct: purchased Enzo Life Science BML-AK511

α-SMA expression in CFs = assay: α-SMA expression levels in cardiac fibroblasts, western blot; format: cell-based, rat; conditions: for α-SMA expression levels: 5 μM for 48 h, absence of TGF-β1, vs. control; for α-SMA expression levels induced by TGF-β1: derivatives 5 μM (TSA 0.1 μM) for 48 h in presence of TGF-β1
Protocol: For this purpose, a fixed concentration of 5a, 6a, 7a and 8a derivatives in the presence/absence of TGF–β1 (a strong inducer of CFs–to–CMFs differentiation), was studied, and α–SMA expression levels were measured by using the western blot technique. TSA was used as a control and also for comparative purposes.
For the analysis of the protein expression of histone H4–acetylated (ac–H4) and total H4 histone, a number of 1 × 10^6 of CFs seeded in 60 mm plates was used, which were incubated with the inhibitory compounds at a concentration of 10 μM, in the absence/presence of TGF–β1(5ng/mL) for 4 h. Subsequently, total histones were extracted by the technique of saline precipitation (high salt extraction). Briefly, CFs were scraped from the plates with 1 mL of cold PBS transferring their contents to Eppendorf tubes to be centrifuged for 60 s at 1500 rpm at 4 °C and re–suspended in 400 μL of cold buffer A (10 mM 4-(2-hydroxyethyl)-1-piperazineethanesulfonic acid-KOH (HEPES-KOH) adjusted to pH 7.9, 1.5 mM MgCl2, 10 mM KCl, 0.5 mM dithiothreitol and 0.2 mM phenylmethylsulfonyl fluoride (PMSF). The suspension is left on ice for 10 min and then placed in the vortex for 10 s. The samples were centrifuged for 60 s, subsequently discarding the supernatant fraction. The obtained pellet was re-suspended in 60 μL of cold C buffer (20 mM HEPES-KOH adjusted to pH 7.9, 25% glycerol, 420 mM NaCl, 1.5 mM MgCl2, 0.2 mM EDTA, dithiothreitol 0.5 mM and 0.2 mM PMSF) and placed on ice for 20 min for saline precipitation. Cell debris is removed by centrifugation for 120 s at 1500 rpm at 4 °C and the supernatant fraction, which contains the DNA binding proteins, is stored at minus 20 °C. For the analysis of α–SMA and procollagen type I expression levels, 3×10^5 CFs seeded in 35 mm plates were used, which were incubated together with inhibitor compounds at a 5 μM, in the absence/presence of TGF–β1 (5 ng/mL) for 48 h. To obtain the total proteins, the CFs were washed three times with cold PBS, then scraped and lysed with 50 μL of radio inmuno-precipitation assay (RIPA) lysis buffer (10 mM Tris–HCl pH 7.2, 5 mM EDTA, 150 mM NaCl, Triton X–100 1%, sodium dodecyl sulfate (SDS) 0.1%, deoxycholate 1%, leupeptin 2 μg/mL, aprotinin 10mM, PMSF 1mM and Na3VO4 100μM). The solution was centrifuged for 15 min at 10,000 rpm and at 4 °C. The supernatant fraction containing the total proteins was stored at minus 20 °C. The concentration of proteins obtained was determined by spectrophotometry at 570 nm, using the Bradford method (Bio-Rad, Hercules, CA, USA).
CFs proteins (25 μg), were subjected to 10% sodium dodecyl sulfate-polyacrylamide gel electrophoresis and finally transferred onto a nitrocellulose membrane (Millipore, Billerica, MA, USA). The membrane was washed twice with tris–buffered saline solution containing 0.1% Tween 20 (TBST). After being blocked with TBST containing 5% nonfat milk for 40 min, the membrane was incubated with primary antibodies in TBST/1% nonfat milk at 4 °C overnight. The membrane was washed three times with TBST for a total of 15 min and then incubated with primary antibodies (ac–H4, H4 total, α-SMA, procollagen type I and GAPDH). Then the membrane was incubated with goat anti–rabbit or anti-mouse IgG antibodies conjugated with horseradish (diluted 1:1000) for 1 h at room temperature. Signals were developed with ECL reagents and exposure to photographic film.
Figure 4 CTz non–substituted inhibit α-SMA expression in cardiac fibroblasts. (A) CFs were exposed to 5a, 6a, 7a and 8a at 5 μM for 48 h. […] (B) CFs were exposed to 5a, 6a, 7a and 8a at 5 μM for 48 h in presence of TGF–β1 ([…]). α-SMA expression levels were measured by western blot. GAPDH was used as control load.

[1] = Cytotoxicity assay (Alamar Blue) in cardiac fibroblasts; format: cell-based, rat; conditions: Sprague-Dawley, rat, primary neonatal rat cardiac fibroblasts (CFs), CFs treated for 48 h

T1 sequence (Q13547 whole entry): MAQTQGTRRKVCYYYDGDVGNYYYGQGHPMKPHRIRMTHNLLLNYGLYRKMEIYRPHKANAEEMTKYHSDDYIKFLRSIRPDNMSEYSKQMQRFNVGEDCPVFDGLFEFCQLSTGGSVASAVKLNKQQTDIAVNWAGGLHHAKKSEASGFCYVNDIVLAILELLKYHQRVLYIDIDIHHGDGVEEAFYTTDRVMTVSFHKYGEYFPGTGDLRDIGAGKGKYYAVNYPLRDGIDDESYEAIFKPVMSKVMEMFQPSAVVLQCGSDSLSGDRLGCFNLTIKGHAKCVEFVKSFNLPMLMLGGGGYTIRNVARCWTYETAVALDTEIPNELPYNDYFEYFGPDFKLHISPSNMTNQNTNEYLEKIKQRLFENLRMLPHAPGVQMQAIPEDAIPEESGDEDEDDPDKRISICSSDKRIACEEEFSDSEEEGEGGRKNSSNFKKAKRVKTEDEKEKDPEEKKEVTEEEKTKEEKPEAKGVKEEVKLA

| IC50 (HDAC1 human recombinant) | Structure (SMILES) | α-SMA expression levels (α-SMA expression in CFs) | α-SMA expression levels induced by TGF-β1 (α-SMA expression in CFs) | CC50 at 48 h [1] |
| --- | --- | --- | --- | --- |
| 0.0604 ± 0.0017 µM | O=C(CCCCC1CCSS1)Nc1nc(-c2cc3ccccc3oc2=O)cs1 (stereo not drawn) [Compound 5a, 5-[1,2]-Dithiolan-3-yl-N-[4-(2-oxo-2H-chromen-3-yl)-thiazol-2-yl]-pentanamide] | decreased in a statistically significant manner | decrease close to control levels | 201 ± 20.3 µM |
| 0.423 ± 0.0302 µM | O=C(Nc1nc(-c2cc3ccccc3oc2=O)cs1)c1ccc(O)c(O)c1 [Compound 6a] | decreased in a statistically significant manner | decrease close to control levels | 140 ± 11.7 µM |
| 7.69 ± 0.328 µM | O=C(O)CCCCC(=O)Nc1nc(-c2cc3ccccc3oc2=O)cs1 [Compound 7a] | had no effect | – | 111 ± 4.4 µM |
| 0.0506 ± 0.0021 µM | O=C(CCCCC(=O)Nc1nc(-c2cc3ccccc3oc2=O)cs1)NO [Compound 8a, 5-[4-(2-Oxo-2H-chromen-3-yl)-thiazol-2-yl-carbamoyl]-N-hydroxypentanamide] | decreased in a statistically significant manner | decrease close to control levels | 90.5 ± 5.1 µM |
